Data: patent US20260199273A1, “Compounds for the Treatment of Neuromuscular Disorders” (NMD PHARMA A/S, priority 2022, published 2026)

test system: isolated rat soleus nerve-muscle preparations; assay: Measurement of force in an in vitro model: recovery of nerve-stimulated contractile force after tubocurarine; conditions: 40 min, 10 μM of test compound, after 40 mins of compound exposure, tubocurarine (115 nM) for 90 minutes, read-out: Point increase (%): percentage increase of initial force that was restored
Description: In one aspect, the invention relates to a method for recovery of force in muscles with neuromuscular dysfunction, said method comprising administering a compound or a composition as defined herein to a subject in need thereof. The term “recovery of force in muscles with neuromuscular dysfunction” as used herein refers to the ability of a compound to recover contractile force in nerve-stimulated healthy rat muscle after exposure to submaximal concentration (115 nM) of tubocurarine for 90 minutes.
Recovery of force is quantified as the percentage of the force prior to tubocurarine that is recovered after addition of the compound. In one embodiment, said recovery of force is >5%, such as >10%, such as >15%, such as >20%, such as >25%, such as >30%, such as >35%.
The current disclosure relates to compounds that inhibit CIC-1 ion channels and increase muscle excitability and thereby improve muscle function in clinical conditions where muscle activation is failing. Such conditions result in loss of contractile function of skeletal muscle, weakness and excessive fatigue. In this series of experiments the compounds were tested for their ability to restore contractile function of isolated rat muscle when the neuromuscular transmission had been compromised akin to neuromuscular disorders.
Experimentally, soleus muscles from 4-5 week old rats were isolated with the motor nerve remaining attached. The nerve-muscle preparations were mounted in experimental setups that enabled electrical stimulation of the motor nerve. Stimulation of the motor nerve led to activation of the muscle fibres and ensuing force production that was recorded. The nerve-muscle preparations were also in these experiments incubated in the standard Krebs Ringer (see example 15) and the solution was heated to 30° C. and continuously equilibrated with a mixture of 95% O2 and 5% CO2, pH ~7.4.
After mounting the nerve-muscle preparation in the experimental setup, the contractile function of the muscle was initially assessed under the control conditions. Sub-maximal concentration of tubocurarine (115 nM), an acetylcholine receptor antagonist, was then added to the experimental bath to impose partial inhibition of the ability of the motor nerve to activate the muscle fibres. The experimental condition mimics the failing neuromuscular transmission in a range of neuromuscular disorders. After addition of tubocurarine the contractile force declined over the next 90 minutes to 10-50% of the control force. The test compound was then added to obtain the required compound concentration in the bath and the contractile force recovered was measured. To quantify the ability of the compound to restore force the percentage of the initial force that was restored was determined after 40 mins of compound exposure and the point increase is reported in Tables 3 to 7.

SMILES | activation at 10 µM
O=C(O)c1cc(Cl)cc2c1CCCC2 [Compound A-3, 3-chloro-5,6,7,8-tetrahydronaphthalene-1-carboxylic acid] | 38%
O=C(O)c1c(Br)c(Cl)cc2c1CCCC2 [Compound A-66, 2-Bromo-3-chloro-5,6,7,8-tetrahydronaphthalene-1-carboxylic acid] | 25%
O=C(O)c1c(Cl)c(Br)cc2c1CCCC2 [Compound A-67, 3-bromo-2-chloro-5,6,7,8-tetrahydronaphthalene-1-carboxylic acid] | 25%
CC1(C)CCc2cc(F)c(Cl)c(C(=O)O)c2O1 [Compound A-75, 7-Chloro-6-fluoro-2,2-dimethyl-8-chromancarboxylic acid] | 10%
CN1CCCc2cc(F)c(Cl)c(C(=O)O)c21 [Compound A-77, 7-Chloro-6-fluoro-1-methyl-1,2,3,4-tetrahydro-8-quinolinecarboxylic acid] | 18%
COc1c(Cl)cc2c(c1C(=O)O)CCCO2 [Compound A-79, 7-Chloro-6-methoxy-5-chromancarboxylic acid] | 34%
CCOc1c(Cl)cc2c(c1C(=O)O)CCCC2 [Compound A-82, 3-Chloro-2-ethoxy-5,6,7,8-tetrahydro-1-naphthoic acid] | 61%

same assay, conditions: 40 min, 25 μM of test compound, after 40 mins of compound exposure, tubocurarine (115 nM) for 90 minutes, read-out: Point increase (%): percentage increase of initial force that was restored

SMILES | activation at 25 µM
O=C(O)c1c(Cl)c(F)cc2c1CCC2 [Compound A-62, 5-Chloro-6-fluoro-2,3-dihydro-1H-indene-4-carboxylic acid] | 14%
O=C(O)c1c(Cl)c(F)cc2c1SCCC2 [Compound A-64, 7-Chloro-6-fluoro-3,4-dihydro-2H-1-benzothiopyran-8-carboxylic acid] | 34%
O=C(O)c1c(F)c(Cl)cc2c1CCN2Cc1ccccc1 [Compound A-76, 1-Benzyl-6-chloro-5-fluoro-4-indolinecarboxylic acid] | 45%
O=C(O)c1c(F)c(Cl)cc2c1OCCC2Cc1ccccc1 (centres unmarked) [Compound A-78, 4-Benzyl-6-chloro-7-fluoro-8-chromancarboxylic acid] | 35%

same assay, conditions: 40 min, 50 μM of test compound, after 40 mins of compound exposure, tubocurarine (115 nM) for 90 minutes, read-out: Point increase (%): percentage increase of initial force that was restored

SMILES | activation at 50 µM
Cc1c(Cl)cc2c(c1C(=O)O)CCC2 [Compound A-1, 6-Chloro-5-methyl-2,3-dihydro-1H-indene-4-carboxylic acid] | 23%
Cc1c(Br)cc2c(c1C(=O)O)CCC2 [Compound A-2, 6-Bromo-5-methyl-2,3-dihydro-1H-indene-4-carboxylic acid] | 19%
Cc1cc2c(c(C(=O)O)c1C)CCC2 [Compound A-4, 5,6-dimethyl-2,3-dihydro-1H-indene-4-carboxylic acid] | 30%
O=C(O)c1c2c(cc(Cl)c1OCF)CCC2 [Compound A-7, 6-Chloro-5-(fluoromethoxy)-2,3-dihydro-1H-indene-4-carboxylic acid] | 36%
O=C(O)c1c2c(cc(Cl)c1OC(F)(F)F)CCC2 [Compound A-11, 6-Chloro-5-(trifluoromethoxy)-2,3-dihydro-1H-indene-4-carboxylic acid] | 31%
Cc1c(Cl)cc2c(c1C(=O)O)OCC2 [Compound A-12, 5-Chloro-6-methyl-2,3-dihydro-1-benzofuran-7-carboxylic acid] | 19%
Cc1cc2c(c(C(=O)O)c1Cl)CCCCC2 [Compound A-34, 2-chloro-3-methyl-6,7,8,9-tetrahydro-5H-benzo[7]annulene-1-carboxylic acid] | 20%
O=C(O)c1c(F)c(Cl)cc2c1OCC2 [Compound A-43, 5-Chloro-6-fluoro-2,3-dihydro-1-benzofuran-7-carboxylic acid] | 25%
O=C(O)c1c(F)c(I)cc2c1CCCC2 [Compound A-55, 2-Fluoro-3-iodo-5,6,7,8-tetrahydronaphthalene-1-carboxylic acid] | 42%
Cc1cc2c(c(C(=O)O)c1F)CCCO2 [Compound A-58, 6-Fluoro-7-methyl-3,4-dihydro-2H-1-benzopyran-5-carboxylic acid] | 48%
O=C(O)c1c(F)c(C(F)(F)F)cc2c1CCCC2 [Compound A-60, 2-Fluoro-3-(trifluoromethyl)-5,6,7,8-tetrahydronaphthalene-1-carboxylic acid] | 21%
COc1cc2c(c(C(=O)O)c1F)OCCC2Cc1ccccc1 (centres unmarked) [Compound A-80, 4-Benzyl-7-fluoro-6-methoxy-8-chromancarboxylic acid] | 22%
COc1c(F)cc2c(c1C(=O)O)C(Cc1ccccc1)CCO2 (centres unmarked) [Compound A-81, 4-Benzyl-7-fluoro-6-methoxy-5-chromancarboxylic acid] | 19%

same assay, conditions: 40 min, 100 μM of test compound, after 40 mins of compound exposure, tubocurarine (115 nM) for 90 minutes, read-out: Point increase (%): percentage increase of initial force that was restored

SMILES | activation at 100 µM
CN1CCCc2c1cc(Cl)c(F)c2C(=O)O [Compound A-45, 7-Chloro-6-fluoro-1-methyl-1,2,3,4-tetrahydroquinoline-5-carboxylic acid] | 38%
O=C(O)c1c(Cl)c(Cl)cc2c1CN(Cc1ccccc1)C2 [Compound A-68, 2-Benzyl-5,6-dichloro-2,3-dihydro-1H-isoindole-4-carboxylic acid] | 40%

target: T1, CIC-1 ion channel (Rattus norvegicus, UniProt P35524); assay: Electrophysiological measurement of compound inhibition of CIC-1 in rat muscle (Gm in soleus fibres, three micro-electrodes); assay type: cell-based; conditions: Gm in individual fibres of whole rat soleus muscles, approx. 30° C., four increasing compound concentrations; read-out: Potency Range (EC50, inhibition of CIC-1 ion channel)
T1 construct: from tissue; host or cells: whole soleus muscle of 12-14 week old Wistar rats
T1 sequence (P35524 1-994): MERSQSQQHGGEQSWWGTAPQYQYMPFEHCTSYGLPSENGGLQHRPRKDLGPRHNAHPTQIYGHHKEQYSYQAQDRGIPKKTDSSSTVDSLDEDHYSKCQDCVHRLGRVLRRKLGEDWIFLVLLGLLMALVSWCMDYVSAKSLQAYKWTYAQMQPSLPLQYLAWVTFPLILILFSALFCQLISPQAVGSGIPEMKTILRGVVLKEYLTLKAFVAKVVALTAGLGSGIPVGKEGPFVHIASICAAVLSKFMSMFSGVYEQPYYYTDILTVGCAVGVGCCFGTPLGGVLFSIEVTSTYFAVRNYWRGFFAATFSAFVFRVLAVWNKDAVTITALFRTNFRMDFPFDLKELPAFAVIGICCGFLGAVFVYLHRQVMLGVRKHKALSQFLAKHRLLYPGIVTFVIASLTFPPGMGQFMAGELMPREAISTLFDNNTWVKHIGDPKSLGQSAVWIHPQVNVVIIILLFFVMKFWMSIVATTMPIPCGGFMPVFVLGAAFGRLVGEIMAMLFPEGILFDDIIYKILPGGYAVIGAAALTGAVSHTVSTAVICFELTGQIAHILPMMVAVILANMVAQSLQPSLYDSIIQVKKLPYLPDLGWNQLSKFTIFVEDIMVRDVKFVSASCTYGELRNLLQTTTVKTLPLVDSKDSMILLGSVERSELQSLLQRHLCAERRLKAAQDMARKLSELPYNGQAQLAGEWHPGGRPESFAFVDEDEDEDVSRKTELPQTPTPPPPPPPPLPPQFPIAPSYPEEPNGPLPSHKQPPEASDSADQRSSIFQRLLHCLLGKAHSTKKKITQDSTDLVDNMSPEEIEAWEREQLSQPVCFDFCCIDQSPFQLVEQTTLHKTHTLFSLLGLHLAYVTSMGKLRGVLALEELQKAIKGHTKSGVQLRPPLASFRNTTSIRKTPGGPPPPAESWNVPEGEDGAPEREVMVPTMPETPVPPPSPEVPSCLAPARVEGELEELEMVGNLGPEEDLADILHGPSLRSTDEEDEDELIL
Description: Apparent CIC-1 affinity was reported by the concentration of compound at which 50% of the compound's full inhibition of CIC-1 was observed (EC50) (see also WO2019/115777).
Experimentally, Gm was measured in individual fibres of whole rat soleus muscles using a three micro-electrodes technique described in this example and in full detail elsewhere (Riisager et al., Determination of cable parameters in skeletal muscle fibres during repetitive firing of action potentials. Journal of Physiology, 2014, 592, 4417-4429). Briefly, intact rat soleus muscles were dissected out from 12-14 week old Wistar rats and placed in an experimental chamber that was perfused with a standard Krebs Ringer solution containing 122 mM NaCl, 25 mM NaHCO3, 2.8 mM KCl, 1.2 mM KH2PO4, 1.2 mM MgSO4, 1.3 mM CaCl2, 5.0 mM D-glucose. During experiments, the solution was kept at approx. 30° C. and continuously equilibrated with a mixture of 95% O2 and 5% CO2, pH ~7.4. The experimental chamber was placed in Nikon upright microscope that was used to visualize individual muscle fibres and the three electrodes (glass pipettes filled with 2 M potassium citrate). For Gm measurements, the electrodes were inserted into the same fibre with known inter-electrode distances of 0.35-0.5 mm (V1-V2, X1) and 1.1-1.5 mm (V1-V3, X3). The membrane potential of the impaled muscle fibre was recorded by all electrodes. Two of the electrodes were furthermore used to inject 50 ms current pulses of −30 nA. […] The steady state voltage deflection at each distance was divided by the magnitude of current injected (−30 nA) and the resulting transfer resistances were plotted against inter-electrode distance and the data was fitted to a mono-exponential function from which Gm could be calculated using linear cable theory.
To establish a dose response relationship, Gm was first determined in 10 muscle fibres in the absence of compound and then at four increasing compound concentrations with Gm determinations in 5-10 fibres at each concentration. The average Gm values at each concentration were plotted against compound concentration and the data was fitted to sigmoidal function to obtain an EC5o value.

EC50 | SMILES
10 to 20 µM | Cc1c(Cl)cc2c(c1C(=O)O)CCC2 [Compound A-1, 6-Chloro-5-methyl-2,3-dihydro-1H-indene-4-carboxylic acid]
2 to 10 µM | O=C(O)c1cc(Cl)cc2c1CCCC2 [Compound A-3, 3-chloro-5,6,7,8-tetrahydronaphthalene-1-carboxylic acid]
10 to 20 µM | Cc1cc2c(c(C(=O)O)c1C)CCC2 [Compound A-4, 5,6-dimethyl-2,3-dihydro-1H-indene-4-carboxylic acid]
